Key:
[1] = test system: S. Typhimurium SL1344 (sifB::gfp) in RAW 264.7 macrophages; experiment: SAFIRE macrophage assay: intracellular bacterial load (GFP signal within macrophages); type: cell-based, Salmonella enterica serotype Typhimurium
Procedure, shortened: (§1)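 Compound or DMSO added 2 h after gentamicin-protected infection (MOI ~30, sifB::gfp SL1344) of RAW 264.7 cells and left to 18 h. Fixed cells imaged; intracellular GFP area per macrophage gives bacterial load, while retained adherent MitoTracker Red-stained macrophages define host toxicity.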

[2] = test system: RAW 264.7 macrophages; experiment: SAFIRE macrophage assay: host toxicity (adherent macrophage count, morphology); type: cell-based
Procedure, shortened: as §1

[3] = 5 uM, 'Toxic' given instead of a score
[4] = 25 uM, 'Toxic' given instead of a score
[5] = 5 uM compound, n=1, DMSO solvent control = 98, rifampicin 2 μg/mL = 65
[6] = 25 uM compound, n=1, DMSO solvent control = 98, rifampicin 2 μg/mL = 65
[7] = 5 uM compound, n=1, DMSO solvent control = 100
[8] = 25 uM compound, n=1, DMSO solvent control = 100

SMILES	5 uM Avg Antibacterial Score [1, 3]	25 uM Avg Antibacterial Score [1, 4]	5 uM Avg Cell # Score ([2]; 5 uM)	25 uM Avg Cell # Score ([2]; 25 uM)	5 uM Avg Antibacterial Score [1, 5]	25 uM Avg Antibacterial Score [1, 6]	5 uM Avg Cell # Score [2, 7]	25 uM Avg Cell # Score [2, 8]
OC(COc1ccc(F)cc1)CN1CCC(Nc2nccc(C(F)(F)F)n2)C1 (stereo not shown) [CU097]	100	6.44	95	95	–	–	–	–
OC(COc1ccc(Cl)cc1)CN1CCC(Nc2ncccn2)CC1 (stereo not shown) [CU044]	91	36	84	100	–	–	–	–
COc1ccccc1OCC(O)CN1CCC(Nc2nccc(C(F)(F)F)n2)C1 (stereo not shown) [CU095]	100	43	88	83	–	–	–	–
CN(CC(O)COc1ccc(F)c(F)c1)C1CCNCC1 (stereo not shown) [CU178]	72	51	99	97	–	–	–	–
NC1CCN(CC(O)COc2ccc3ccccc3c2)CC1 (stereo not shown) [CU214]	28	Toxic	103	22	–	–	–	–
OC(COc1ccccc1C(F)(F)F)CN1CCC(Nc2nccc(C(F)(F)F)n2)C1 (stereo not shown) [CU112]	47	Toxic	88	59	–	–	–	–
NCCC1CCN(CC(O)COc2cc(Cl)cc(Cl)c2)CC1 (stereo not shown) [CU250]	–	–	–	–	20	Toxic	115	26
OC(COc1ccccc1)CN1CCC(Nc2nccc(C(F)(F)F)n2)C1 (stereo not shown) [CU083]	100	32	89	95	–	–	–	–
OC(COc1ccc2cc[nH]c2c1)CN1CCC(Nc2nccc(C(F)(F)F)n2)CC1 (stereo not shown) [CU117]	3.65	Toxic	66	74	–	–	–	–
OC(COc1ccc(F)cc1F)CN1CCC(Nc2nccc(C(F)(F)F)n2)CC1 (stereo not shown) [CU039]	107	13	90	145	–	–	–	–
OC(COc1ccc(Cl)c(Cl)c1)CN1CCN(c2nccc(C(F)(F)F)n2)CC1 (stereo not shown) [CU061]	Toxic	Toxic	74	101	–	–	–	–
CC(=O)NC1CCN(CC(O)COc2ccc(Cl)c(Cl)c2)C1 (stereo not shown) [CU033]	106	72	79	110	–	–	–	–
NC1CCN(CC(O)COc2cccc3ccccc23)CC1 (stereo not shown) [CU215]	44	Toxic	106	17	–	–	–	–
OC(COc1ccc(Cl)cc1)CN1CCC(NC2CC2)C1 (stereo not shown) [CU140]	87	73	122	130	–	–	–	–
CNC(=O)C1CCN(CC(O)COc2ccc(Cl)c(Cl)c2)CC1 (stereo not shown) [CU057]	101	93	85	89	–	–	–	–
N[C@H]1CC[C@H](NCC(O)COc2cc(Cl)cc(Cl)c2)CC1 (stereo partly shown) [CU217]	65	16	106	96	–	–	–	–
NC1CCN(CC(O)COc2ccc(F)cc2)C1 (stereo not shown) [CU153]	106	85	103	131	–	–	–	–

SMILES	5 uM Avg Antibacterial Score [1, 3]	25 uM Avg Antibacterial Score [1, 4]	5 uM Avg Cell # Score ([2]; 5 uM)	25 uM Avg Cell # Score ([2]; 25 uM)	5 uM Avg Antibacterial Score [1, 5]	25 uM Avg Antibacterial Score [1, 6]	5 uM Avg Cell # Score [2, 7]	25 uM Avg Cell # Score [2, 8]
OC(COc1cccc(Br)c1)CN1CCC(Nc2nccc(C(F)(F)F)n2)CC1 (stereo not shown) [CU107]	10	Toxic	90	41	–	–	–	–
OC(COc1ccccc1C(F)(F)F)CN1CCC(Nc2nccc(C(F)(F)F)n2)CC1 (stereo not shown) [CU106]	8	Toxic	79	44	–	–	–	–
NCC1CCN(CC(O)COc2cc(Cl)cc(Cl)c2)CC1 (stereo not shown) [CU208]	20	Toxic	167	15	–	–	–	–
CN(C)C(=O)C1CCN(CC(O)COc2ccc(Cl)c(Cl)c2)CC1 (stereo not shown) [CU058]	104	72	85	81	–	–	–	–
NC1CCN(CC(O)COc2ccc(Cl)cc2Cl)C1 (stereo not shown) [CU166]	44	19	105	108	–	–	–	–
OC(CNCc1csc(Cl)c1)COc1ccc(Cl)c(Cl)c1 (stereo not shown) [CU155]	107	Toxic	95	78	–	–	–	–
N=C(N)NC1CCN(CC(O)COc2ccc(Cl)c(Cl)c2)C1 (stereo not shown) [CU197]	103	87	109	117	–	–	–	–
OC(COc1ccc2ccccc2c1)CN1CCC(Nc2nccc(C(F)(F)F)n2)CC1 (stereo not shown) [CU078]	7.5	Toxic	87	133	–	–	–	–
OC(COc1cccc(Cl)c1)CN1CCC(Nc2nccc(C(F)(F)F)n2)CC1 (stereo not shown) [CU102]	18	Toxic	82	51	–	–	–	–
CN1CCN(CC(O)COc2ccc(Cl)c(Cl)c2)CC1=O (stereo not shown) [CU220]	104	105	116	105	–	–	–	–
OC(COc1ccc(Cl)c(Cl)c1)CN1CCC(F)(F)C1 (stereo not shown) [CU124]	102	85	80	71	–	–	–	–
N#Cc1cccc(OCC(O)CN2CCC(Nc3nccc(C(F)(F)F)n3)CC2)c1 (stereo not shown) [CU082]	100	19	89	85	–	–	–	–
CCOC(=O)c1cccc(OCC(O)CN2CCC(Nc3nccc(C(F)(F)F)n3)CC2)c1 (stereo not shown) [CU104]	13	Toxic	98	61	–	–	–	–
NCCC1CCN(CC(O)COc2ccc(Cl)c(Cl)c2)CC1 (stereo not shown) [CU249]	–	–	–	–	17	Toxic	123	56
OC(CNC1CCNCC1)COc1ccc(Cl)cc1 (stereo not shown) [CU198]	83	34	110	110	–	–	–	–
CCOC(=O)c1cccc(OCC(O)CN2CCC(N)C2)c1 (stereo not shown) [CU168]	73	55	101	111	–	–	–	–
OC(CNCc1ccc2c(c1)OC(F)(F)O2)COc1ccc(Cl)c(Cl)c1 (stereo not shown) [CU134]	61	Toxic	84	91	–	–	–	–
